{"source": "patent US11752166B2", "about": "“Combination therapy for treatment of HCV” (COCRYSTAL PHARMA, INC., priority 2018, dated 2023)", "test_system": "HCV GT1b (Con1, HCV-1b) replicon", "test": "HCV GT1b replicon 2-drug combination assay (firefly luciferase, MacSynergy II)", "assay_type": "cell-based, Hepatitis C virus", "design": "Synergy volume / Antagonism volume: unit not given here", "conditions": "for Antagonism volume / Synergy volume: 3 days, 0.125-8x EC50", "procedure": "Materials: Cells—The HCV GT1b (Con1, HCV-1b) replicon cells were generated and provided by WuXi AppTec. The HCV-1b replicon cells are Huh7 cells stably transfected with the HCV GT1b replicon containing the HCV subgenome, resistance selection gene NEO and reporter gene firefly luciferase.\nSoftware—HCV replicon data was analyzed using MacSynergy™ II software.\nMethods: This study was to assess combination effects of the Compound A with other HCV antivirals on HCV replicon replication in the HCV GT1b replicon assay.\nThe 2-drug combination experiment was designed using a checkboard cross pattern of 7 drug concentrations of each agent, including each agent alone, in triplicate, plated with the Automated Liquid Workstation (Labcyte, Echo555). The concentrations of the test compounds were 0.125, 0.25, 0.5, 1, 2, 4, 8× EC50 values. The EC50 values of the test compounds were determined in a separate HCV GT1b replicon assay. The regimens of the compound combinations are listed in Table 1—where each regimen includes Compound A as the first compound. The final concentration of DMSO in the cell culture medium was 0.5%.\nThe HCV-1b cells were seeded at a density of 8,000 cells per well in 96-well plates and cultured in DMEM containing 10% FBS at 5% CO2 and 37° C. The replicon cells were treated with the compounds for 3 days.\nThe antiviral activity of the compounds was determined by monitoring activity of the replicon reporter firefly luciferase using Bright Glo in accordance with the protocol provided by the supplier. The combination indices were calculated using the MacSynergy™ II software. A positive combination index value indicates synergism, and a negative combination index value indicates antagonism.", "key": {"[1]": {"conditions": "2nd inhibitor (NS3 protease inhibitor table, incl. ribavirin) in combination with Compound A"}, "[2]": {"conditions": "2nd inhibitor (NS5B nucleoside inhibitor) in combination with Compound A"}, "[3]": {"conditions": "2nd inhibitor (NS5A inhibitor) in combination with Compound A"}}, "data": [{"smiles": "C=C[C@@H]1C[C@]1(NC(=O)[C@@H]1C[C@@H](Oc2ncc(OC)c3ccc(Cl)cc23)CN1C(=O)[C@@H](NC(=O)OC(C)(C)C)C(C)(C)C)C(=O)NS(=O)(=O)C1CC1", "note": "[Asunaprevir]", "values": [{"measurement": "Combination regimen effect", "setting": "[1]", "value": "Additive"}, {"measurement": "Antagonism volume", "setting": "[1]", "value": "−1.32"}, {"measurement": "Synergy volume", "setting": "[1]", "value": 4.9}]}, {"smiles": "CNC(=O)c1c(-c2ccc(F)cc2)oc2cc(N(CCCCCOCc3ccc(C(=O)O)cc3)S(C)(=O)=O)c(C3CC3)cc12", "note": "[Compound A]", "values": [{"measurement": "Combination effect", "setting": "with HCV NS5B nucleoside inhibitors, NS5A inhibitors, NS3 protease inhibitors, NS3 helicase inhibitors, and ribavirin", "value": "either additive or synergistic effect"}]}, {"smiles": "CC(C)OC(=O)[C@@H](C)NP(=O)(OC[C@@H]1O[C@H](n2ccc(NO)nc2=O)[C@@](C)(O)[C@H]1O)Oc1ccccc1", "note": "(stereo partly drawn) [Compound B]", "values": [{"measurement": "Combination regimen effect", "setting": "[2]", "value": "Additive"}, {"measurement": "Antagonism volume", "setting": "[2]", "value": 0.00}, {"measurement": "Synergy volume", "setting": "[2]", "value": 3.30}]}, {"smiles": "COC(=O)N[C@H](C(=O)N1C[C@H](SC)C[C@@H]1c1ncc(-c2ccc(-c3ccc(-c4[nH]c([C@@H]5CCCN5C(=O)[C@@H](NC(=O)OC)c5ccccc5)nc4Cl)cc3)cc2)[nH]1)c1ccccc1", "note": "[Compound C]", "values": [{"measurement": "Combination regimen effect", "setting": "[3]", "value": "Additive"}, {"measurement": "Antagonism volume", "setting": "[3]", "value": 0}, {"measurement": "Synergy volume", "setting": "[3]", "value": 3.57}]}, {"smiles": "COC(=O)N[C@H](C(=O)N1CCC[C@H]1c1nc(-c2ccc(-c3ccc(-c4c[nH]c([C@@H]5CCCN5C(=O)[C@@H](NC(=O)OC)C(C)C)n4)cc3)cc2)c[nH]1)C(C)C", "note": "[Daclatasvir]", "values": [{"measurement": "Antagonism volume", "setting": "[3]", "value": "−3.05"}, {"measurement": "Synergy volume", "setting": "[3]", "value": 33.47}]}, {"smiles": "CC(C)(C)[C@@H]1NC(=O)O[C@@H]2CCC[C@H]2OC/C=C/C(F)(F)c2nc3ccccc3nc2O[C@@H]2C[C@@H](C(=O)N[C@]3(C(=O)NS(=O)(=O)C4(C)CC4)C[C@H]3C(F)F)N(C2)C1=O", "note": "[Glecaprevir]", "values": [{"measurement": "Combination regimen effect", "setting": "[1]", "value": "Minor synergism"}, {"measurement": "Antagonism volume", "setting": "[1]", "value": 0.00}, {"measurement": "Synergy volume", "setting": "[1]", "value": 47.37}]}, {"smiles": "COC(=O)N[C@H](C(=O)N1CC2(CC2)C[C@H]1c1nc(-c2ccc3c(c2)C(F)(F)c2cc(-c4ccc5[nH]c([C@@H]6[C@H]7CC[C@H](C7)N6C(=O)[C@@H](NC(=O)OC)C(C)C)nc5c4)ccc2-3)c[nH]1)C(C)C", "note": "[Ledipasvir]", "values": [{"measurement": "Combination regimen effect", "setting": "[3]", "value": "Minor synergy"}, {"measurement": "Antagonism volume", "setting": "[3]", "value": "−1.08"}, {"measurement": "Synergy volume", "setting": "[3]", "value": 38.55}]}, {"smiles": "COC(=O)N[C@H](C(=O)N1CCC[C@H]1c1nc2cc([C@H]3CC[C@H](c4cc5nc([C@@H]6CCCN6C(=O)[C@@H](NC(=O)OC)[C@@H](C)OC)[nH]c5cc4F)N3c3cc(F)c(N4CCC(c5ccc(F)cc5)CC4)c(F)c3)c(F)cc2[nH]1)[C@@H](C)OC", "note": "[Pibrentasvir]", "values": [{"measurement": "Combination regimen effect", "setting": "[3]", "value": "Additive"}, {"measurement": "Antagonism volume", "setting": "[3]", "value": "−24.59"}, {"measurement": "Synergy volume", "setting": "[3]", "value": 5.7}]}, {"smiles": "NC(=O)c1ncn([C@@H]2O[C@H](CO)[C@@H](O)[C@H]2O)n1", "note": "[Ribavirin]", "values": [{"measurement": "Combination regimen effect", "setting": "[1]", "value": "Additive"}, {"measurement": "Antagonism volume", "setting": "[1]", "value": "−9.76"}, {"measurement": "Synergy volume", "setting": "[1]", "value": 0.24}]}, {"smiles": "COc1ccc2c(O[C@@H]3C[C@H]4C(=O)N[C@]5(C(=O)NS(=O)(=O)C6CC6)C[C@H]5/C=C\\CCCCN(C)C(=O)[C@@H]4C3)cc(-c3nc(C(C)C)cs3)nc2c1C", "note": "[Simprevir, Simeprevir]", "values": [{"measurement": "Combination regimen effect", "setting": "[1]", "value": "Additive"}, {"measurement": "Antagonism volume", "setting": "[1]", "value": 0.00}, {"measurement": "Synergy volume", "setting": "[1]", "value": 13.39}]}, {"smiles": "CC(C)OC(=O)[C@H](C)N[P@](=O)(OC[C@H]1O[C@@H](n2ccc(=O)[nH]c2=O)[C@](C)(F)[C@@H]1O)Oc1ccccc1", "note": "[Sofosbuvir]", "values": [{"measurement": "Combination regimen effect", "setting": "[2]", "value": "Additive"}, {"measurement": "Antagonism volume", "setting": "[2]", "value": 0.00}, {"measurement": "Synergy volume", "setting": "[2]", "value": 9.47}]}, {"smiles": "COC[C@H]1C[C@@H](c2nc(-c3ccc4c(c3)COc3cc5c(ccc6nc([C@@H]7CC[C@H](C)N7C(=O)[C@@H](NC(=O)OC)C(C)C)[nH]c65)cc3-4)c[nH]2)N(C(=O)[C@H](NC(=O)OC)c2ccccc2)C1", "note": "[Velpatasvir]", "values": [{"measurement": "Combination regimen effect", "setting": "[3]", "value": "Additive"}, {"measurement": "Antagonism volume", "setting": "[3]", "value": "−7.92"}, {"measurement": "Synergy volume", "setting": "[3]", "value": 0.76}]}]}
